Reference: patent US11369665B2, “Anti-inflammatory peptides and composition comprising the same” (GemVax & KAEL Co., Ltd., priority 2012, dated 2022)

How the values were obtained:
TNF-α = TNF-α ELISA in LPS-stimulated PBMC-derived monocytes; assay type: cell-based, human; settings: LPS 10 ng/ml 2 hrs, starved 1 hr, 4 uM for 2 hrs, ELISA of culture medium
Procedure: PBMC (peripheral blood mononuclear cell) was separated from the blood samples (50 ml) collected from healthy subjects using Ficoll-Paque™ PLUS (CYTIVA™, Piscataway, N.J., USA). PBMCs were then enriched in complete RPMI 1640 medium containing 20% of human serum, followed by transferring to 100 mm polystyrene cell culture plate coated with human serum for 30 mins. […]
To see the effect of PEP-1 on TNF-α level in terms of protein expression level. […] After culturing, cell soup was collected, and the amount of TNF-α was measured using ELISA kit (R&D, Minneapolis, Minn., USA) as follows:
TNF measurement uses sandwich ELISA method. […] Again, plate was washed, and avidin/biotin was added for measuring the absorbance. TNF-α level of each sample was quantified using the standard graph calculated from the absorbance of standard solution.
PBMC-derived monocytes were stimulated with endotoxin LPS (10 ng/ml) for 2 hrs, starved for 1 hr using OPTI-MEM®, and then 4 uM of FITC, FITC-TAT, PEP 1-FITC and FITC-PEP 1 were treated for 2 hrs. After incubation, TNF-α level was measured with cell culture medium using ELISA.

MAP Kinase = assay: 2D-electrophoresis protein expression in neural stem cells; assay type: cell-based, rat; settings: 20 ug β-amyloid treated group, versus negative control 1.0
Procedure: (§1) Protein expression level of PEP-1 treated group and untreated group was analyzed by 2D-electrophoresis technique and antibody microarray technique. Prepared 200 μg by extracting proteome from the neural stem cells cultured in Experiment 3-1 of Example 3. In addition, the group in which PEP-1 was not treated was used as the comparison group in the same condition.
(§2) 2D-electrophoresis was performed using 12% acrylamide gels. First gel electrophoresis was performed at PI 4˜10 N, using a gel size of 8.5×7 cm. After electrophoresis, it was dyed with Colloidal Coomassie Blue, and then compared expression by using PDQuest software to analyze each spot.
(§3) Difference in the expression levels of more than 1.5 times was identified using MALDI-TOF MS (Matrix Desorption/Ionization Time of Flight Mass Spectromestry). Among these, proteins correlated with inflammation-related signaling, such as i-NOS and HMGB-1 were identified (Refer to Table 6). The changes in protein expression levels either increased or decreased by 1.5 times by amyloid-β protein, but it was confirmed that expression level was regulated close to that of negative control when PEP-1 was added (Refer to FIGS. 14A-14B).
(§4) The Table 6 below is an analysis of expression levels of proteins associated with inflammation by 2D electrophoresis technique. The control group represents protein expression level of cells that were not treated with neither amyloid-β protein nor PEP-1.

HSP 90 = assay: as above; assay type: cell-based, rat; settings: 20 ug β-amyloid treated group, versus negative control 1.0
Procedure: as §1, §2, §3, §4

HMGB1 = assay: as above; assay type: cell-based, rat; settings: 20 ug β-amyloid treated group, versus negative control 1.0
Procedure: as §1, §2, §3, §4

GADD 153 = assay: as above; assay type: cell-based, rat; settings: 20 ug β-amyloid treated group, versus negative control 1.0
Procedure: as §1, §2, §3, §4

Pyk2 = assay: as above; assay type: cell-based, rat; settings: 20 ug β-amyloid treated group, versus negative control 1.0
Procedure: as §1, §2, §3, §4

i-NOS = assay: as above; assay type: cell-based, rat; settings: 20 ug β-amyloid treated group, versus negative control 1.0
Procedure: as §1, §2, §3, §4

HSP 70 = assay: as above; assay type: cell-based, rat; settings: 20 ug β-amyloid treated group, versus negative control 1.0
Procedure: as §1, §2, §3, §4

e-NOS = assay: as above; assay type: cell-based, rat; settings: 20 ug β-amyloid treated group, versus negative control 1.0
Procedure: as §1, §2, §3, §4

neural stem cells = assay: Amyloid-β toxicity assessment on neural stem cells; assay type: cell-based, rat; settings: 20 μM amyloid-β protein, 48 hours
Procedure: After removing the cortex from the head of an embryonic rat that had been pregnant for 13 days, it was cultured for a week with Basic Fibroblast Growth Factor (bFGF) to obtain the neural stem cells. To analyze the effects of the amyloid-β protein on the neural stem cells, the pre-oligomerized amyloid-β protein of concentrations 0 to 40 μM was treated on neural stem cells for 48 hours, then CCK-8 assay, BrdU, and TUNEL assay were used for cytotoxicity assessment (refer from BA Yankner et al, 1990 and K N Dahlgren et al, 2002).

Substance | TNF-α level (TNF-α) [ng/mL] | MAP Kinase expression (fold) (MAP Kinase) | HSP 90 expression (fold) (HSP 90) | HMGB1 expression (fold) (HMGB1) | GADD 153 expression (fold) (GADD 153) | Pyk2 expression (fold) (Pyk2) | i-NOS expression (fold) (i-NOS) | HSP 70 expression (fold) (HSP 70) | e-NOS expression (fold) (e-NOS) | cell survival (neural stem cells) [%]
Fluorescein Isothiocyanate [FITC] | 6.2 |  |  |  |  |  |  |  |  | 
amyloid-β protein [reference compound] |  | 2.2 | −1.8 | −1.5 | 1.6 | 2.0 | 1.9 | −2.3 | 1.9 | 60
